What all share (format): cell-based
Assay [1] deals with T1, TRPA1 (Homo sapiens, UniProt O75762).
T1 construct: endogenous in cells; host or cells: HCC1569 breast cancer cells (2D culture or 3D spheroids; shGFP or shTRPA1 transduced)
The assay is described as follows: AITC-evoked [Ca2+]i rises in TRPA1-enriched MPNST cells. The conditions noted are these: 10 μM AP-18, 30 μM AITC. The method, then: (§1) For the measurement of [Ca^2+]i levels in cells cultured in 2D or 3D (in Matrigel), cells were stained with 3.5 μM fura-2-AM (Life Technology) in the presence of 2.5 mM probenecid (Sigma) and 0.02% Pluronic F-127 (Sigma) for 45 min at 37° C. The fura-2 fluorescence was measured in HBS solution containing 1.25 mM probenecid at 37° C. Fluorescence images of the cells were acquired through the Eclipse Ti-E microscope with ORCA-R2 cooled CCD camera and analyzed with Metafluor. The 340:380-nm ratio images were obtained on a pixel-by-pixel basis and were converted to Ca^2+ concentrations by in vivo calibration using 5 μM ionomycin as described previously (Nishida et al., Biochem. Biophys. Res. Commun., 262:350-354, 1999). 3D images are shown as one section from midstructure. For the measurement of [Ca^2+]i levels in cells cultured in suspension, cell clumps were dissociated with trypsin and [Ca^2+]i levels were determined by using Fluo-4 NW Calcium Assay Kit (Molecular Probes). Cells were stained with Fluo-4 according to the manufacturer's instructions and subjected to flow cytometric analysis (FACSCalibur) using HBS as sheath fluid. [Ca^2+]i levels determined by flow cytometry are reported as mean fluorescence intensity expressed in arbitrary units. […]

The next assay relates to HCC1569 cells. Kind of assay: Soft agar anchorage-independent growth of HCC1569 cells. On the procedure: Cells were added to the regular MCF-10A or HCC1569 growth media (±AP-18, A-967079, or Trolox) plus 0.4% low-melt agarose (Sigma) and layered onto a bed of growth media plus 0.5% low-melt agarose. Cells were fed every 4 days with growth media (±AP-18, A-967079, or Trolox) plus 0.4% low-melt agarose. At the indicated times, viable colonies were stained with iodonitrotetrazolium chloride (Sigma). Colony number and colony size were determined using ImageJ. Images shown are representative of at least three independent experiments.

The subject of assay [2] is TRPA1. Kind of assay: [Ca2+]i by fura-2 in TRPA1-expressing MCF-10A 3D acini. The conditions noted are these: inner ECM-deprived region of MCF-10A acini. The method, then:
For the measurement of [Ca^2+]i levels in cells cultured in 2D or 3D (in Matrigel), cells were stained with 3.5 μM fura-2-AM (Life Technology) in the presence of 2.5 mM probenecid (Sigma) and 0.02% Pluronic F-127 (Sigma) for 45 min at 37° C. The fura-2 fluorescence was measured in HBS solution containing 1.25 mM probenecid at 37° C. Fluorescence images of the cells were acquired through the Eclipse Ti-E microscope with ORCA-R2 cooled CCD camera and analyzed with Metafluor. The 340:380-nm ratio images were obtained on a pixel-by-pixel basis and were converted to Ca^2+ concentrations by in vivo calibration using 5 μM ionomycin as described previously (Nishida et al., Biochem. Biophys. Res. Commun., 262:350-354, 1999). 3D images are shown as one section from midstructure. For the measurement of [Ca^2+]i levels in cells cultured in suspension, cell clumps were dissociated with trypsin and [Ca^2+]i levels were determined by using Fluo-4 NW Calcium Assay Kit (Molecular Probes). Cells were stained with Fluo-4 according to the manufacturer's instructions and subjected to flow cytometric analysis (FACSCalibur) using HBS as sheath fluid. [Ca^2+]i levels determined by flow cytometry are reported as mean fluorescence intensity expressed in arbitrary units. Time courses of [Ca^2+]i rises in 2D culture are representative of three independent experiments and averaged Δ[Ca^2+]i represents mean±SEM from the sum of three independent experiments. Fura-2 ratio images in 3D culture are representative of two independent experiments and averaged [Ca^2+]i in 3D culture represents mean±SEM from the sum of two independent experiments.

Assay [3] deals with T1, TRPA1. The assay is described as follows: AITC-evoked [Ca2+]i rises in TRPA1-enriched NSCLC cells. The conditions noted are these: 10 μM AP-18, 30 μM AITC. The method, then:
as §1

T1 sequence (O75762 whole entry): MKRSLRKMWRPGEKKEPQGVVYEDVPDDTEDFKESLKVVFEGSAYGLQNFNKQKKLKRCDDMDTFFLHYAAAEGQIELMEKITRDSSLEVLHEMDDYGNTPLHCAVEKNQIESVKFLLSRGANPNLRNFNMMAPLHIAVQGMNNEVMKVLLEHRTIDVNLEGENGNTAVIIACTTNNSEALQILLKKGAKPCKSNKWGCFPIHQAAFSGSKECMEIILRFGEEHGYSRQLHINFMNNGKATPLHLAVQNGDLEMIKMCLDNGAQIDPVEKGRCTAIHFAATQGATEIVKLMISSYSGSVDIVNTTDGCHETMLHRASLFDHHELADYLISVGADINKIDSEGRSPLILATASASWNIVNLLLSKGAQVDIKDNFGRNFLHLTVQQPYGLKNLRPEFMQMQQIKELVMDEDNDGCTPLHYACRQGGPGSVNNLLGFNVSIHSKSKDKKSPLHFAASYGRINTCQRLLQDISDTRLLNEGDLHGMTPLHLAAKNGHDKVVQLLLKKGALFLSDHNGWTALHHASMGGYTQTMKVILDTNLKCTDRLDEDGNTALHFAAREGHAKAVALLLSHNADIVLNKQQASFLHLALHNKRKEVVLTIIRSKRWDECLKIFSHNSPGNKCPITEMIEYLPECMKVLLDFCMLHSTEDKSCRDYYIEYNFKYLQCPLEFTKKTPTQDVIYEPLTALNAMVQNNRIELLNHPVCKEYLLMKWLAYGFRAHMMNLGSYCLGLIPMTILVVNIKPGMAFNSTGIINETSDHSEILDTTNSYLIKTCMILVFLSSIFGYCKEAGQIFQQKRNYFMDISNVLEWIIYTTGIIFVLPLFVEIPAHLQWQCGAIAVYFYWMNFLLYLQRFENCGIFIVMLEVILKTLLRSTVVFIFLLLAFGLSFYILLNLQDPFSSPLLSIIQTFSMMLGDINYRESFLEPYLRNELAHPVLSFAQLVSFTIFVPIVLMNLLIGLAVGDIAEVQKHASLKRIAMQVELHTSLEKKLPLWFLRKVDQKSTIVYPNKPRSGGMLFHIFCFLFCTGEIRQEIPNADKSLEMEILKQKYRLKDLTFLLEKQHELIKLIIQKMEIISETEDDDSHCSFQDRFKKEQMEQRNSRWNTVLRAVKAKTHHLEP
T1 sequence (O75762 682-1119 limits assumed): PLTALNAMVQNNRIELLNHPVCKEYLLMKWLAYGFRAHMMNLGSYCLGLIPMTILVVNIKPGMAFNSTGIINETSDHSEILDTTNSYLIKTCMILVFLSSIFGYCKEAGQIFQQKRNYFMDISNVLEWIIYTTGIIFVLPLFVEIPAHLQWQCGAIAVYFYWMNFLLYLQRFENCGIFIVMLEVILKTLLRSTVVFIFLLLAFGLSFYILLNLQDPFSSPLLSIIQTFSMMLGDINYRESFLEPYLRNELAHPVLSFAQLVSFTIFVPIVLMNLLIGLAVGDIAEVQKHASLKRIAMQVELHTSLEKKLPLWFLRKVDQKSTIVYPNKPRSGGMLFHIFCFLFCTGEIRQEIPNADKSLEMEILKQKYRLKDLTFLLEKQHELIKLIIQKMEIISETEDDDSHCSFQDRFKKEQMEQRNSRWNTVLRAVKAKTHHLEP

On to AP-18, for which the “inhibition of AITC-induced [Ca2+]i rises” value on TRPA1 [1] and at TRPA1 [3] was “abolished” in each case. In the assay on HCC1569 cells, the “anchorage-independent growth (number and average size of colonies)” value was “impaired”. Moreover, the “TRPA1- or E681K-induced [Ca2+]i rises” value with TRPA1 [2] is recorded as “abolished”.

(Values after patent publication US11241442B2, “Methods of use for TRP channel antagonist-based combination cancer therapies” (President and Fellows of Harvard College, priority 2017, dated 2022).)
